Experimental data taken from patent publication US12122764B2, “IKAROS zinc finger family degraders and uses thereof” (Gilead Sciences, Inc., priority 2021, dated 2024).

target: T1, IKZF2 (Homo sapiens, UniProt Q96SW2+Q9UKS7); test: HiBiT protein tagging assay, in vitro IKZF2 degradation (HEK293); format: cell-based; conditions: IKZF2-HiBiT reporter Flp-In T-REx HEK293 cells, doxycycline-induced, compound overnight (18-24 hr), normalized to DMSO control
T1 construct: expressed in transfected cells
T1 sequence (Q9UKS7 1-500 isoform Q9UKS7-2): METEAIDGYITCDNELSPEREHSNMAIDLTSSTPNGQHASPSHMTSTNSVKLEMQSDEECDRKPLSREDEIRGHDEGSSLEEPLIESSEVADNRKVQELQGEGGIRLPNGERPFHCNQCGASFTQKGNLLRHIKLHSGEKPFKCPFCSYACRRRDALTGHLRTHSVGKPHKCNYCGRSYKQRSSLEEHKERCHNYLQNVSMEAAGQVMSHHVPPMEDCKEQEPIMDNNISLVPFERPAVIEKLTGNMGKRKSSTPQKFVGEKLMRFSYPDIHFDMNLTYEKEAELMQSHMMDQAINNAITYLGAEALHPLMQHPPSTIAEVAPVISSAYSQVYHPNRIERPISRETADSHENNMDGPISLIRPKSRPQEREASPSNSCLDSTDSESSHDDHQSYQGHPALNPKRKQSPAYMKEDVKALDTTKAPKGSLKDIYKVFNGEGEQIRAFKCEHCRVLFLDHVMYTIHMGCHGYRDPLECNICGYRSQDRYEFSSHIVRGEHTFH
T1 sequence (Q96SW2 whole entry): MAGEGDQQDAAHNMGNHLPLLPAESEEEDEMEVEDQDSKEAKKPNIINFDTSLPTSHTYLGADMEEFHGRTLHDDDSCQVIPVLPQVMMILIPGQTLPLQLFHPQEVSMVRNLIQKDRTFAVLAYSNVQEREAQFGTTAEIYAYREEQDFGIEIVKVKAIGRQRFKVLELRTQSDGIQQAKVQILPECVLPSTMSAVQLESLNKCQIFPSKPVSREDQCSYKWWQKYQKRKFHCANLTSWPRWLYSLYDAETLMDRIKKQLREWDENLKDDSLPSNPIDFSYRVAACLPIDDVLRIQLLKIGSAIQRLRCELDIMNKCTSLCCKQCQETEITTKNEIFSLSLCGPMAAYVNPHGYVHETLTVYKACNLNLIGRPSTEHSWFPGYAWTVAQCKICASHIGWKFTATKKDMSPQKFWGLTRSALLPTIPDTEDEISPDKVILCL
T1 sequence (Q16531 whole entry partner): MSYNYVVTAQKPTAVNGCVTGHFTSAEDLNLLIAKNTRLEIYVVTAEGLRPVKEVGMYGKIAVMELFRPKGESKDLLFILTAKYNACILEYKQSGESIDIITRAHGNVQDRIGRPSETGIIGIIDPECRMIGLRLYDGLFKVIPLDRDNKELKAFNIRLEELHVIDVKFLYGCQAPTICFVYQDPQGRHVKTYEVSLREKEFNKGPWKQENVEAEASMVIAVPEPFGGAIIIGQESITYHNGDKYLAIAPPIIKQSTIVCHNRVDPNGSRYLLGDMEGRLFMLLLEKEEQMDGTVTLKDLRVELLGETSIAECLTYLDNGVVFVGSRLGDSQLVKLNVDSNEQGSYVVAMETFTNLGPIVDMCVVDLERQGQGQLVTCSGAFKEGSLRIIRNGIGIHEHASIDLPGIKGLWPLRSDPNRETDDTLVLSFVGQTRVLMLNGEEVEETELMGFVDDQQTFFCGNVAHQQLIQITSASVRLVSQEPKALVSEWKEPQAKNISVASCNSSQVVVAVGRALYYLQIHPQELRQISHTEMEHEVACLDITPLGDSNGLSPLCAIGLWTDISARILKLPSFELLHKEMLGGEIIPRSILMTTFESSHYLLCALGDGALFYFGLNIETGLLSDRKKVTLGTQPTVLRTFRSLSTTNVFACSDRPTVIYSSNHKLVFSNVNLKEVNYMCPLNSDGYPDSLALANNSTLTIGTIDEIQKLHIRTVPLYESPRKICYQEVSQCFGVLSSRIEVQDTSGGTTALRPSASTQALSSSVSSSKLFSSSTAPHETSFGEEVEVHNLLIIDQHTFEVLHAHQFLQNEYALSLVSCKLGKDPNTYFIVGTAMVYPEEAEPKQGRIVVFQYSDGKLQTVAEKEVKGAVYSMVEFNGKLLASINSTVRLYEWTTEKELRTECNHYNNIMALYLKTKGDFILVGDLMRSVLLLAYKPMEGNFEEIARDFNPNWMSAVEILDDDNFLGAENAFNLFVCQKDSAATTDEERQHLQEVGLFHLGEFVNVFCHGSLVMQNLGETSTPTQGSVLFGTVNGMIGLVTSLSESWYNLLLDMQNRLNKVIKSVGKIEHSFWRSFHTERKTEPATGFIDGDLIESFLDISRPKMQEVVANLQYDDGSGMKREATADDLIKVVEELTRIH
Method: In vitro degradation of IKZF1 and IKZF2 was measured using HiBiT protein tagging and detection technology (Promega).
HiBiT technology (Promega) was used to develop the quantitative assays to measure the cellular IKZFs level by tagging an 11 amino acid HiBit peptides VSGWRLFKKIS (SEQ ID NO:1) to the protein of interest. Reporter plasmids were generated by fusing a linker sequence (GSSGGSSG; SEQ ID NO:2) followed by the HiBiT tag at the C terminus of IKZF1 and IKZF2. The fusion fragments were subsequently cloned into pcDNA5 pcDNA™5/FRT/TO plasmids (Thermo Fisher, cat #V652020) downstream of the Tetracycline operator. The resulting plasmids were co-transfected with pOG44 Flp-Recombinase Expression Vector (Thermo Fisher, cat #V600520) into Flp-In™ T-REx HEK293 line (Thermo Fisher, cat #R78077) and a stable cell pool was selected by adding 100 μg/ml of Hygromycin (Thermo Fisher, cat #10687010). The reporter cell enabled Tet-On inducible reporter expression from a single copy of the integrated gene.
On Day 1, Cells were grown to ˜80% confluency in TC medium (DMEM Glutamax (Gibco10569), 10% Tet free FBS (Takara 631106), and PenStrep Glutamin (Gibco 10378)) in tissue culture flasks. Doxycycline was then added to a final concentration of 1 μg/ml to induce reporter expression at 37° C. overnight.
On Day 2, 125 nL of serially-diluted solution of testing compounds were dispensed into 384-well white solid assay plates via ECHO acoustic liquid handler. Cells were lifted by 0.25% Trypsin (Gibco 25200) then pelleted by centrifugation (Beckman Avanti J-E) at 500×g for 5 min. Cell pellets were resuspended in TC medium at the concentration of 3e5/mL and 25 μL of cell suspension were added into each well of compound-spotted plates. The plates were returned to a 37° C. incubator overnight (18-24 hr).
On Day 3, assay plates were removed from the TC incubator and 25 μL of Nano-Glo lytic detection system (Promega, cat #N3030) was added to each well. Plates were incubated at r.t. for 3 min with shaking, and luminescence was read using an Envision reader (Perkin Elmer).
All raw data was normalized to DMSO control (final concentration: 0.5%) wells as POC and plotted out for EC50 and Dmax (Maximum degradation at the highest concentration tested in the assay).

Structure (SMILES)	IKZF2 Dmax (maximum degradation at the highest concentration tested)
O=C1CCC(N2Cc3cc(O[C@@H]4CN(Cc5ccccc5)CC[C@H]4NCC(F)(F)F)ccc3C2=O)C(=O)N1 (relative stereo) [Example 45, 3-(5-(((3,4-trans)-1-benzyl-4-((2,2,2-trifluoroethyl)amino)piperidin-3-yl)oxy)-1-oxoisoindolin-2-yl)piperidine-2,6-dione]	44%
O=C1CCC(N2Cc3cc(O[C@@H]4CN(Cc5ccccc5)CC[C@H]4N4CC(Oc5ccccc5Cl)C4)ccc3C2=O)C(=O)N1 (relative stereo) [Example 54, 3-(5-(((3,4-trans)-1-benzyl-4-(3-(2-chlorophenoxy)azetidin-1-yl)piperidin-3-yl)oxy)-1-oxoisoindolin-2-yl)piperidine-2,6-dione]	94%
O=C1CCC(N2Cc3cc(O[C@@H]4CN(Cc5ccccc5)CC[C@H]4NC(=O)NCc4ccccc4)ccc3C2=O)C(=O)N1 (relative stereo) [Example 55, 1-benzyl-3-((3,4-trans)-1-benzyl-3-((2-(2,6-dioxopiperidin-3-yl)-1-oxoisoindolin-5-yl)oxy)piperidin-4-yl)urea]	91%

same assay, conditions: IKZF2-HiBiT reporter Flp-In T-REx HEK293 cells, doxycycline-induced, compound overnight (18-24 hr), normalized to DMSO control; read-out: IKZF2 Dmax (maximum degradation at the highest concentration tested)

Structure (SMILES)	Dmax
N[C@@H]1CCN(Cc2ccccc2)C[C@H]1Oc1ccc2c(c1)CN(C1CCC(=O)NC1=O)C2=O (relative stereo) [Example 42, 3-(5-((trans-4-amino-1-benzylpiperidin-3-yl)oxy)-1-oxoisoindolin-2-yl)piperidine-2,6-dione]	96%
CCN1CCC(NCc2ccccc2)C(Oc2ccc3c(c2)CN(C2CCC(=O)NC2=O)C3=O)C1 (racemic) [Example 4]	51%
CCN(CC)C1CCN(Cc2ccccc2)CC1Oc1ccc2c(c1)CN(C1CCC(=O)NC1=O)C2=O (racemic) [Example 11]	90%
CCNC1CCN(Cc2ccc3ccccc3c2)CC1Oc1ccc2c(c1)CN(C1CCC(=O)NC1=O)C2=O (racemic) [Example 56]	96%
COc1ccc(CN2CC[C@H](NCc3ccccc3)[C@@H](Oc3ccc4c(c3)CN(C3CCC(=O)NC3=O)C4=O)C2)cc1 (mixture of isomers) [Example 33]	94%
CC(C)N[C@H]1CCN(Cc2cnccn2)C[C@@H]1Oc1ccc2c(c1)CN(C1CCC(=O)NC1=O)C2=O (some centres unmarked) [Example 68]	74%
CCN(CC)[C@H]1CCN(Cc2ccc(F)cc2)C[C@@H]1Oc1ccc2c(c1)CN(C1CCC(=O)NC1=O)C2=O (some centres unmarked) [Example 65]	99%
O=C1CCC(N2Cc3cc(OC4CN(Cc5ccccc5)CCC4NC4CC4)ccc3C2=O)C(=O)N1 (racemic) [Example 63]	94%
O=C1CCC(N2Cc3cc(OC4CN(Cc5ccccc5)CCC4NCCF)ccc3C2=O)C(=O)N1 (racemic) [Example 59]	86%
O=C1CCC(N2Cc3cc(OC4CN(Cc5ccccc5)CCC4N(C4CC4)C4CC4)ccc3C2=O)C(=O)N1 (racemic) [Example 61]	82%
N#Cc1ccc(CN2CC[C@H](NCc3ccccc3)[C@@H](Oc3ccc4c(c3)CN(C3CCC(=O)NC3=O)C4=O)C2)cc1 (mixture of isomers) [Example 32]	94%
CC(C)N1CCC(NCc2ccccc2)C(Oc2ccc3c(c2)CN(C2CCC(=O)NC2=O)C3=O)C1 (racemic) [Example 5]	47%
CCN[C@H]1CCN(Cc2ccc(F)cc2F)C[C@@H]1Oc1ccc2c(c1)CN(C1CCC(=O)NC1=O)C2=O (mixture of isomers) [Example 38]	97%
CC(C)N[C@H]1CCN(Cc2nccs2)C[C@@H]1Oc1ccc2c(c1)CN(C1CCC(=O)NC1=O)C2=O (some centres unmarked) [Example 62]	103%
CCN(CC)C1CCN(Cc2ccc3ccccc3c2)CC1Oc1ccc2c(c1)CN(C1CCC(=O)NC1=O)C2=O (racemic) [Example 57]	98%
O=C1CCC(N2Cc3cc(O[C@H]4CN(Cc5ccc(F)cc5F)CC[C@@H]4NCc4ccccc4)ccc3C2=O)C(=O)N1 (mixture of isomers) [Example 21]	92%
CN1CC[C@@H](NCc2ccccc2)[C@H](Oc2ccc3c(c2)CN(C2CCC(=O)NC2=O)C3=O)C1 (relative stereo) [Example 1, 3-(5-((trans-4-(benzylamino)-1-methylpiperidin-3-yl)oxy)-1-oxoisoindolin-2-yl)piperidine-2,6-dione]	53%
O=C1CCC(N2Cc3cc(O[C@@H]4CN(C5CC5)CC[C@H]4NCc4ccccc4)ccc3C2=O)C(=O)N1 (mixture of isomers) [Example 16]	57%
O=C1CCC(N2Cc3cc(O[C@H]4CN(Cc5ccc(-c6ccccc6)cc5)CC[C@@H]4NCc4ccccc4)ccc3C2=O)C(=O)N1 (mixture of isomers) [Example 31]	101%
O=C1CCC(N2Cc3cc(OC4CN(CC(F)F)CCC4NCc4ccccc4)ccc3C2=O)C(=O)N1 (stereo not drawn) [Example 49, 3-(5-(((3,4-trans)-4-(benzylamino)-1-(2,2-difluoroethyl)piperidin-3-yl)oxy)-1-oxoisoindolin-2-yl)piperidine-2,6-dione]	69%
N#CCN1CCC(NCc2ccccc2)C(Oc2ccc3c(c2)CN(C2CCC(=O)NC2=O)C3=O)C1 (racemic) [Example 41]	28%
CC(C)NC1CCN(Cc2ccccc2)CC1Oc1ccc2c(c1)CN(C1CCC(=O)NC1=O)C2=O (racemic) [Example 36]	98%

Second part, the compound after the results:

Dmax	Structure (SMILES)
92%	O=C1CCC(N2Cc3cc(OC4CN(Cc5cccnc5)CCC4NCc4ccccc4)ccc3C2=O)C(=O)N1 (racemic) [Example 7]
94%	O=C1CCC(N2Cc3cc(OC4CN(Cc5ccccc5)CCC4NCc4ccccc4)ccc3C2=O)C(=O)N1 (racemic) [Example 2]
97%	CCNC1CCN(Cc2ccccc2)CC1Oc1ccc2c(c1)CN(C1CCC(=O)NC1=O)C2=O (racemic) [Example 12]
69%	O=C1CCC(N2Cc3cc(O[C@H]4CN(Cc5ccccc5)CC[C@@H]4NCc4ccccc4Cl)ccc3C2=O)C(=O)N1 (mixture of isomers) [Example 10]
64%	O=C1CCC(N2Cc3cc(OC4CN(Cc5ccccn5)CCC4NCc4ccccc4)ccc3C2=O)C(=O)N1 (racemic) [Example 8]
87%	O=C1CCC(N2Cc3cc(OC4CN(Cc5ccncc5)CCC4NCc4ccccc4)ccc3C2=O)C(=O)N1 (racemic) [Example 9]
69%	CC(=O)NC1CCN(Cc2ccccc2)CC1Oc1ccc2c(c1)CN(C1CCC(=O)NC1=O)C2=O (stereo not drawn) [Example 48, N-((3,4-trans)-1-benzyl-3-((2-(2,6-dioxopiperidin-3-yl)-1-oxoisoindolin-5-yl)oxy)piperidin-4-yl)acetamide]
95%	O=C1CCC(N2Cc3cc(O[C@H]4CN(Cc5ccc(Cl)cc5)CC[C@@H]4NCc4ccccc4)ccc3C2=O)C(=O)N1 (mixture of isomers) [Example 30]
39%	O=C1CCC(N2Cc3cc(O[C@H]4CN(c5ccccc5)C[C@@H]4NCc4ccccc4)ccc3C2=O)C(=O)N1 (stereo partly drawn) [Example 39, 3-(5-(((3S,4S)-4-(benzylamino)-1-phenylpyrrolidin-3-yl)oxy)-1-oxoisoindolin-2-yl)piperidine-2,6-dione]
86%	O=C1CCC(N2Cc3cc(O[C@H]4CN(Cc5cccc(F)c5F)CC[C@@H]4NCc4ccccc4)ccc3C2=O)C(=O)N1 (mixture of isomers) [Example 20]
93%	O=C1CCC(N2Cc3cc(O[C@H]4CN(Cc5c(F)cccc5F)CC[C@@H]4NCc4ccccc4)ccc3C2=O)C(=O)N1 (mixture of isomers) [Example 24]
85%	O=C1CCC(N2Cc3cc(O[C@H]4CN(Cc5ccccc5Cl)CC[C@@H]4NCc4ccccc4)ccc3C2=O)C(=O)N1 (mixture of isomers) [Example 3]
71%	C[C@@H](c1ccccc1)N1CC[C@H](NCc2ccccc2)[C@@H](Oc2ccc3c(c2)CN(C2CCC(=O)NC2=O)C3=O)C1 (mixture of isomers) [Example 50]
57%	C[C@H](c1ccccc1)N1CC[C@H](NCc2ccccc2)[C@@H](Oc2ccc3c(c2)CN(C2CCC(=O)NC2=O)C3=O)C1 (mixture of isomers) [Example 51]
98%	O=C1CCC(N2Cc3cc(OC4CN(Cc5ccccc5)CCC4NCCc4ccccc4)ccc3C2=O)C(=O)N1 (racemic) [Example 35]
48%	O=C1CCC(N2Cc3cc(OC4CN(Cc5ccccc5)CCC4Nc4ccccc4)ccc3C2=O)C(=O)N1 (stereo not drawn) [Example 43, 3-(5-(((3,4-trans)-1-benzyl-4-(phenylamino)piperidin-3-yl)oxy)-1-oxoisoindolin-2-yl)piperidine-2,6-dione]
